# Data published in patent US4198504A, “[3-(Pyridinium)-7-(naphthyiridinyl carbonylamino)acetamido]cephalosporanic acid derivatives” (Bristol-Myers Company, priority 1978, dated 1980).
# Like-named read-outs stand apart in the source and are kept apart here.
# Key:
# [1] = tested on: Pseudomonas aeruginosa A9843; assay: In vivo efficacy, experimental infection in mice, intramuscular treatment, Pseudomonas aeruginosa A9843; design: species or system Pseudomonas aeruginosa (infected mice); details: A9843, im, 120 h, read-out: PD50 Pseudomonas aeruginosa A9843
# Procedure: (§1) The in vivo efficacy was evaluated by intramuscular treatment against three kinds of experimental infection in mice.
# (§2) The in vivo tests were carried out using the following three pathogenic organisms:
# Pseudomonas aeruginosa A9843
# (§3) Mice were challenged intraperitoneally with approximately a 100×LD50 dose of the pathogens in a 5% mucin suspension. The mice were treated with test compound by I.M. route immediately after the bacterial challenge.
# Pseudomonas aeruginosa = assay: In vitro MIC, serial two-fold agar dilution, secondary evaluation against Pseudomonas aeruginosa strains; format: cell-based; details: CBPC = 100%, geometric mean of MICs
# Procedure: (§4) Minimun inhibitory concentrations (MIC) were determined by the serial two-fold agar dilution method using Steers' apparatus on Mueller-Hinton agar plate against 31 test organisms for the primary screening and also against 64 strains of Pseudomonas aeruginosa for the secondary evaluation. The results are shown in Table 1 in terms of relative activity with respect to the standard compound CBPC (carbenicillin) which was set at 100%. In each group the calculation was based on the geometric mean of the observed MICs.
# [2] = tested on: Ent. cloacae (3), Pr. vulgaris (1), Pr. morganii (1), S. marcescen (1); assay: In vitro MIC, serial two-fold agar dilution, primary evaluation Gn-II (Ent. cloacae, Pr. vulgaris, Pr. morganii, S. marcescens); format: cell-based; details: CBPC = 100%, geometric mean of MICs
# Procedure: as §4
# GnII = Ent. cloacae (3), Pr. vulgaris (1), Pr. morganii (1), S. marcescen
# S. aureus = assay: In vitro MIC, serial two-fold agar dilution, primary evaluation Gp (S. aureus, 6 strains); format: cell-based; details: CBPC = 100%, geometric mean of MICs
# Procedure: as §4
# *GP = S. aureus (6 strains);
# [3] = Antibiotic blood levels in mice following intramuscular administration (paper disc-agar diffusion, Escherichia coli NIHJ as assay organism); format: in vivo; details: mouse, im, I.M., 20 mg./kg.; for half-life: read-out: Blood level, Half-life; for Cmax: read-out: Blood level, Peak Concentration
# Procedure: Antibiotic blood levels were determined in mice following intramuscular administration of the test compounds at 20 mg./kg. The blood samples were collected from the orbital sinuses into heparinized capillary tubes at 15, 30, 60 and 120 minutes after administration. The antibiotic concentration was determined by the paper disc-agar diffusion method using Escherichia coli NIHJ as the assay organism.
# [4] = tested on: Staphylococcus aureus Smith; assay: In vivo efficacy, experimental infection in mice, intramuscular treatment, Staphylococcus aureus Smith; design: species or system Staphylococcus aureus (infected mice); details: im, 120 h, read-out: PD50 Staphylococcus aureus Smith
# Procedure: as §1, §2
# Staphylococcus aureus Smith
# as §3
# Escherichia coli Juhl = assay: In vivo efficacy, experimental infection in mice, intramuscular treatment, Escherichia coli Juhl; design: species or system Escherichia coli (infected mice); details: im, 120 h, read-out: PD50 Escherichia coli Juhl
# Procedure: as §1, §2, §3
# Ps. aeruginosa = assay: In vitro MIC, serial two-fold agar dilution, primary evaluation Ps (6 strains); format: cell-based; details: CBPC = 100%, geometric mean of MICs
# Procedure: as §4
# Ps. = Ps. aeruginosa (6).
# [5] = tested on: E. coli (9), Klebsiella sp. (2), Pr. mirabilis (1), Sal. enteritidis (1); assay: In vitro MIC, serial two-fold agar dilution, primary evaluation Gn-I (E. coli, Klebsiella sp., Pr. mirabilis, Sal. enteritidis); format: cell-based; details: CBPC = 100%, geometric mean of MICs
# Procedure: as §4
# GnI = E. coli (9), Klebsiella sp. (2), Pr. mirabilis (1), Sal.
# [6] = I.M., 100×LD50 challenge i.p., 5 days
SMILES,"ED50 [1, 6]","ED50 ([1]; Lot 2, I.M.)","In vitro relative activity, secondary, Pseudomonas aeruginosa (61-64) (Pseudomonas aeruginosa; 61-64 strains)","In vitro relative activity, secondary, Pseudomonas aeruginosa (61-64) (Pseudomonas aeruginosa; Lot 2)","In vitro relative activity, primary evaluation Gn-II (6) ([2]; Mueller-Hinton agar)","In vitro relative activity, primary evaluation Gn-II (6) ([2]; Lot 2)","In vitro relative activity, primary evaluation Gp (6) (S. aureus; Mueller-Hinton agar)","In vitro relative activity, primary evaluation Gp (6) (S. aureus; Lot 2)",half-life [3],Cmax [3],"ED50 ([4]; Lot 2, I.M.)","ED50 (Escherichia coli Juhl; Lot 2, I.M.)","In vitro relative activity, primary evaluation Ps (6) (Ps. aeruginosa; Mueller-Hinton agar)","In vitro relative activity, primary evaluation Ps (6) (Ps. aeruginosa; Lot 2)","In vitro relative activity, primary evaluation Gn-I (13) ([5]; Mueller-Hinton agar)","In vitro relative activity, primary evaluation Gn-I (13) ([5]; Lot 2)","ED50 [4, 6]",ED50 (Escherichia coli Juhl; [6])
"O=C(O)C=Cc1ccc[n+](CC2=C(C(=O)[O-])N3C(=O)C(NC(=O)[C@H](NC(=O)c4cnc5cccnc5c4O)c4ccc(O)cc4)C3SC2)c1 (stereo partly drawn) [BB-S589, 7-[D-α-(4-Hydroxy-1,5-naphthyridine-3-carboxamido)-α-(4-hydroxyphenyl)acetamido]-3-[3-(2-carboxyvinyl)pyridinium]methyl-3-cephem-4-carboxylate]",4 mg/kg,3.2 mg/kg,1880%,2970%,14%,44%,56%,45%,60 min,7000 ng/mL,3.7 mg/kg,1.9 mg/kg,1449%,2900%,146%,107%,,
O=C(O)C=Cc1ccc[n+](CC2=C(C(=O)[O-])N3C(=O)C(NC(=O)[C@H](NC(=O)c4cnc5cccnc5c4O)c4ccc(O)c(O)c4)C3SC2)c1 (stereo partly shown) [BB-S610],2.8 mg/kg,,491%,,14%,,16%,,60 min,6200 ng/mL,,,656%,,57%,,17 mg/kg,1.8 mg/kg
"O=C(O)CSc1cc[n+](CC2=C(C(=O)[O-])N3C(=O)C(NC(=O)[C@H](NC(=O)c4cnc5cccnc5c4O)c4ccc(O)cc4)C3SC2)cc1 (stereo partly drawn) [BB-S599, 7-[D-α-(4-Hydroxy-1,5-naphthyridine-3-carboxamido)-α-(4-hydroxyphenyl)acetamido]-3-(4-carboxymethylthiopyridinium)-methyl-3-cephem-4-carboxylate]",8.4 mg/kg,,2010%,,83%,,35%,,54 min,7800 ng/mL,,,2180%,,260%,,2.2 mg/kg,2.4 mg/kg
"O=C([O-])C1=C(C[n+]2ccc(C(=O)O)cc2)CSC2C(NC(=O)[C@H](NC(=O)c3cnc4cccnc4c3O)c3ccc(O)cc3)C(=O)N12 (stereo partly drawn) [BB-S584, 7-[D-α-(4-Hydroxy-1,5-naphthyridine-3-carboxamido)-α-(4-hydroxyphenyl)acetamido]-3-(4-carboxypyridinium)methyl-3-cephem-4-carboxylate]",36 mg/kg,,1180%,,14%,,22%,,81 min,12500 ng/mL,,,725%,,166%,,7.6 mg/kg,4.2 mg/kg
"O=C(O)Cc1ccc[n+](CC2=C(C(=O)[O-])N3C(=O)C(NC(=O)[C@H](NC(=O)c4cnc5cccnc5c4O)c4ccc(O)cc4)C3SC2)c1 (stereo partly drawn) [BB-S580, 7-[D-α-(4-Hydroxy-1,5-naphthyridine-3-carboxamido)-α-(4-hydroxyphenyl)acetamido]-3-(3-carboxymethylpyridinium)methyl-3-cephem-4-carboxylate]",6.4 mg/kg,,1780%,,33%,,27%,,33 min,16500 ng/mL,,,2490%,,359%,,2.6 mg/kg,1.2 mg/kg
"O=C([O-])C1=C(C[n+]2ccc(CCS(=O)(=O)O)cc2)CSC2C(NC(=O)[C@H](NC(=O)c3cnc4cccnc4c3O)c3ccc(O)c(Cl)c3)C(=O)N12 (stereo partly drawn) [BB-S605, 7-[D-α-(4-Hydroxy-1,5-naphthyridine-3-carboxamido)-α-(3-chloro-4-hydroxyphenyl)acetamido]-3-(4-sulfoethylpyridinium)-methyl-3-cephem-4-carboxylate]",8.4 mg/kg,,1300%,,40%,,40%,,54 min,9400 ng/mL,,,1310%,,83%,,3.1 mg/kg,3.1 mg/kg
"O=C(O)C=Cc1ccc[n+](CC2=C(C(=O)[O-])N3C(=O)C(NC(=O)[C@H](NC(=O)c4cnc5cccnc5c4O)c4ccccc4)C3SC2)c1 (stereo partly drawn) [BB-S603, 7-[D-α-(4-Hydroxy-1,5-naphthyridine-3-carboxamide)-α-phenyl-acetamido]-3-(3-carboxyvinylpyridinium)methyl-3-cephem-4-carboxylate]",18 mg/kg,,1270%,,38%,,73%,,44 min,9000 ng/mL,,,1150%,,80%,,1.15 mg/kg,2.2 mg/kg
"O=C([O-])C1=C(C[n+]2ccccc2C(=O)O)CSC2C(NC(=O)[C@H](NC(=O)c3cnc4cccnc4c3O)c3ccc(O)cc3)C(=O)N12 (stereo partly drawn) [BB-S585, 7-[D-α-(4-Hydroxy-1,5-naphthyridine-3-carboxamido)-α-(4-hydroxyphenyl)acetamido]-3-(2-carboxypyridinium)methyl-3-cephem-4-carboxylate]",86 mg/kg,,466%,,4%,,20%,,60 min,5800 ng/mL,,,297%,,53%,,10 mg/kg,7.4 mg/kg
"O=C([O-])C1=C(C[n+]2cccc(S(=O)(=O)O)c2)CSC2C(NC(=O)[C@H](NC(=O)c3cnc4cccnc4c3O)c3ccc(O)c(O)c3)C(=O)N12 (stereo partly drawn) [BB-S609, 7-[D-α-(4-Hydroxy-1,5-naphthyridine-3-carboxamido)-α-(3,4-dihydroxyphenyl)acetamido]-3-(3-sulfopyridinium)methyl-3-cephem-4-carboxylate]",1.2 mg/kg,,1375%,,11%,,18%,,51 min,7400 ng/mL,,,1450%,,53%,,17 mg/kg,1.8 mg/kg
O=C([O-])C1=C(C[n+]2cccc(C(=O)O)c2)CSC2C(NC(=O)[C@H](NC(=O)c3cnc4cccnc4c3O)c3ccc(O)c(O)c3)C(=O)N12 (stereo partly shown) [BB-S608],2.4 mg/kg,,1207%,,14%,,13%,,50 min,8500 ng/mL,,,975%,,53%,,8.5 mg/kg,1.4 mg/kg
